Measurements taken from ChEMBL document CHEMBL1155836, “Discovery of imidazole carboxamides as potent and selective CCK1R agonists” (Bioorg Med Chem Lett, 2008).
Activity calls are given as the source filed them. The rule behind the calls is not given here.

Key:
[1] = biological target: T1, Gastrin/cholecystokinin type B receptor (Homo sapiens) (UniProt P32239); assay: Agonist activity against human CCK2 receptor; format: functional
T1 sequence (whole entry): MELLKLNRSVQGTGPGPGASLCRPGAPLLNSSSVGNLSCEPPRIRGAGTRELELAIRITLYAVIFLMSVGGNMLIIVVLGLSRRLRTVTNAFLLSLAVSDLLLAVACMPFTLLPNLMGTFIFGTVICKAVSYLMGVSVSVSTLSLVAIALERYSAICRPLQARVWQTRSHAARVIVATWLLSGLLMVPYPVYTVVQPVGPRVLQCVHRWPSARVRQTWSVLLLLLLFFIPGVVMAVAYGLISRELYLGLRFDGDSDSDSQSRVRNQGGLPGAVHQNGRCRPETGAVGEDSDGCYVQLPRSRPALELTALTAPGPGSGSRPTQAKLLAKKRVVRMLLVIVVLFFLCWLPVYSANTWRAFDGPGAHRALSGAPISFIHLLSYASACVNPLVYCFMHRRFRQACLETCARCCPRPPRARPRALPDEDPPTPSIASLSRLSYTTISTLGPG

[2] = biological target: T1, Gastrin/cholecystokinin type B receptor (Homo sapiens); assay: Agonist activity against human CCK2 receptor assessed as receptor activation at 10000 nM; format: functional
[3] = biological target: T2, Cholecystokinin receptor type A (Homo sapiens, UniProt P32238); assay: Agonist activity against human CCK1 receptor; format: functional
T2 sequence (P32238 whole entry): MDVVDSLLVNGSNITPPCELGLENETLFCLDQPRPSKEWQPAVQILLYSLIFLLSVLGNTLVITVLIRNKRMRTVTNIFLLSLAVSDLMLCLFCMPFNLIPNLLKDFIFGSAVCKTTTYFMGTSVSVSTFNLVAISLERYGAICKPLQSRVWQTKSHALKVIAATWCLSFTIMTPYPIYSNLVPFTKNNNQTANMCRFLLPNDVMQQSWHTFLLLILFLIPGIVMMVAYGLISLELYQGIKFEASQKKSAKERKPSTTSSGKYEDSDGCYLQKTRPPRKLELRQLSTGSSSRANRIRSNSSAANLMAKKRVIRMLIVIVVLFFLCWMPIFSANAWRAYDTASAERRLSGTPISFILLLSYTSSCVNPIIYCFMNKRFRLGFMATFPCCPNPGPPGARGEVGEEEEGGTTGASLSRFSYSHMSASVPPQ

[4] = biological target: T3, Cholecystokinin receptor type A (Homo sapiens) (UniProt P32238); assay: Agonist activity against human CCK1 receptor assessed as receptor activation at 10000 nM; format: functional
T3 sequence (whole entry): T2 sequence (P32238 whole entry)

[5] = biological target: T2, Cholecystokinin receptor type A; assay: Inhibition of human CCK1 receptor
[6] = biological target: T4, Gastrin/cholecystokinin type B receptor (Homo sapiens, UniProt P32239); assay: Inhibition of human CCK2 receptor
T4 sequence (P32239 whole entry): T1 sequence (whole entry)

[7] = biological target: T1, Gastrin/cholecystokinin type B receptor (Homo sapiens); assay: Inhibition of human CCK2 receptor at 10000 nM
Mus musculus [8] = assay: Reduction in overnight food intake in wild-type mouse at 10 mg/kg; format: functional, organism-based; design: dose 10 mg/kg
Mus musculus [9] = assay: Reduction in overnight food intake in CCK1 receptor deficient mouse at 10 mg/kg; format: functional, organism-based; design: dose 10 mg/kg
Mus musculus [10] = assay: Gallbladder emptying activity in mouse assessed as reduction of gallbladder weight at 0.001 mg/kg, po; format: functional; design: scale not given: the % may be the effect or the level left
[11] = biological target: Cholecystokinin receptor type A (Mus musculus, UniProt O08786); assay: Agonist activity against mouse CCK1 receptor; format: functional
Chain of Cholecystokinin receptor type A (Mus musculus, UniProt O08786) (O08786 whole entry, looked up): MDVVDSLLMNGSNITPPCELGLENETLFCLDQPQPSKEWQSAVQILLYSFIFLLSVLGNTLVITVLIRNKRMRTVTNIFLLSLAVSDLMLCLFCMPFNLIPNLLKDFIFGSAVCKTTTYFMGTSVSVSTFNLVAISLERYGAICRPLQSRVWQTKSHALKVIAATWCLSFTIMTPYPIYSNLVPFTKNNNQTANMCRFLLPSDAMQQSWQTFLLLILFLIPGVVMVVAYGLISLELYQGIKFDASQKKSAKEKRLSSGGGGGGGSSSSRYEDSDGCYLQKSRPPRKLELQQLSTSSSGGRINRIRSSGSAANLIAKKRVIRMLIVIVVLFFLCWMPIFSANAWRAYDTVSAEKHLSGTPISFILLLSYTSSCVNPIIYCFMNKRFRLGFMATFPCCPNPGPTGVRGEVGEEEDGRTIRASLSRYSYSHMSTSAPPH

Mus musculus [12] = assay: Reduction in overnight food intake in lean mouse at 0.3 mg/kg, po; format: functional; design: scale not given: the % may be the effect or the level left
Mus musculus [13] = assay: Reduction in overnight food intake in lean mouse at 3 mg/kg, po; format: functional; design: scale not given: the % may be the effect or the level left
[14] = Clearance in mouse at 1.0 mg/kg, iv and 10 mg/kg, po; format: ADME, organism-based; details: in vivo
[15] = Volume of distribution in mouse at 1.0 mg/kg, iv and 10 mg/kg, po; format: ADME, organism-based; details: in vivo
[16] = Half life in mouse at 1.0 mg/kg, iv and 10 mg/kg, po; format: ADME, organism-based; details: in vivo
[17] = Cmax in mouse at 1.0 mg/kg, iv and 10 mg/kg, po; format: ADME, organism-based; details: in vivo
[18] = Oral bioavailability in mouse at 10 mg/kg; format: ADME, organism-based; details: in vivo

Row | Compound | Activity [1] | Activity [2] [%] | EC50 [3] [nM] | Activity [4] [%] | IC50 [5] [nM] | IC50 [6] [nM] | inhibition [7] [%] | also measured
1 | Cc1ccc(-c2nc(C(=O)N3CCN(c4cnc5ccccc5c4)CC3)cn2-c2ccc3c(c2)OCCO3)cc1 | inactive | < 36 | 0.12 | 94 | 0.2 | > 10000 | < 24 | 
2 | CCOc1cccc(-n2cc(C(=O)N3CCN(c4cc(C(=O)O)c5ccccc5c4)CC3)nc2-c2ccc(C)cc2)c1 [listing 1 of 2 here] | inactive | < 36 |  | 105 |  |  | < 24 | Activity (Mus musculus [8]): Active; Activity (Mus musculus [9]): inactive
3 | O=C(O)C(F)(F)F.O=C(O)c1cc(N2CCN(C(=O)c3cn(-c4ccc5c(c4)OCCO5)c(-c4ccc(F)cc4)n3)CC2)cc2ccccc12 |  |  |  |  |  |  |  | Activity (Mus musculus [10]): 88%; EC50 [11]: 0.14 nM; Activity (Mus musculus [12]): 16%; Activity (Mus musculus [13]): 96%
4 | CCOc1cccc(-n2cc(C(=O)N3CCN(c4cc(C(=O)O)c5ccccc5c4)CC3)nc2-c2ccc(C)cc2)c1 [listing 2 of 2 here] |  |  | 0.094 |  | 0.12 | > 10000 |  | clearance [14]: 5.3 mL/min/kg; Vd [15]: 0.47 L/kg; half-life [16]: 3.5 h; Cmax [17]: 280 nM; bioavailability [18]: 7%
5 | CCOc1cccc(-n2cc(C(=O)N3CCN(c4cc(C(=O)O)c5ccccc5c4)CC3)nc2-c2ccc(C)cc2F)c1 [listing 1 of 2 here] |  |  | 0.056 |  | 0.06 | > 10000 |  | clearance [14]: 10.4 mL/min/kg; Vd [15]: 0.59 L/kg; half-life [16]: 1.7 h; Cmax [17]: 820 nM; bioavailability [18]: 22%
6 | CCOc1cccc(-n2cc(C(=O)N3CCN(c4cnc5ccccc5c4)CC3)nc2-c2ccc(F)cc2)c1 | inactive | < 36 | 0.25 | 92 | 0.6 | > 10000 | < 24 | 
7 | CCOc1cccc(-n2cc(C(=O)N3CCN(c4cnc5ccccc5c4)CC3)nc2-c2ccccc2F)c1 | inactive | < 36 | 0.53 | 89 | 0.57 | > 10000 | < 24 | 
8 | CCOc1cccc(-n2cc(C(=O)N3CCN(c4cc(C(=O)O)c5ccccc5c4)CC3)nc2-c2ccc(C)cc2F)c1 [listing 2 of 2 here] | inactive | < 36 |  | 73 |  |  | < 24 | Activity (Mus musculus [8]): Active; Activity (Mus musculus [9]): inactive
9 | O=C(c1cn(-c2ccc3c(c2)OCCO3)c(-c2ccc(F)cc2)n1)N1CCN(c2cnc3ccccc3c2)CC1 | inactive | < 36 | 0.26 | 101 | 0.12 | > 10000 | < 24 | 
10 | Cc1ccc(-c2nc(C(=O)N3CCN(c4cc(C(=O)O)c5ccccc5c4)CC3)cn2-c2ccc3c(c2)OCCO3)c(F)c1 | inactive | < 36 | 0.077 | 71 | 0.03 | > 10000 | < 24 | 
11 | CCOc1cccc(-n2cc(C(=O)N3CCN(c4cnc5ccccc5c4)CC3)nc2-c2ccc(C)cc2F)c1 | inactive | < 36 | 0.13 | 86 | 0.24 | > 10000 | < 24 | 
12 | CCOc1cccc(-n2cc(C(=O)N3CCN(c4cnc5ccccc5c4)CC3)nc2-c2ccc(C)cc2)c1 |  |  |  |  |  |  |  | EC50 [11]: 2.1 nM
13 | CCOc1cccc(-n2cc(C(=O)N3CCN(c4cc(C(=O)O)c5ccccc5c4)CC3)nc2-c2ccc(F)cc2)c1.O=C(O)C(F)(F)F |  |  |  |  |  |  |  | Activity (Mus musculus [10]): 69%; EC50 [11]: 1.5 nM; Activity (Mus musculus [13]): 73%
14 | Cc1ccc(-c2nc(C(=O)N3CCN(c4cc(C(=O)O)c5ccccc5c4)CC3)cn2-c2ccc3c(c2)OCCO3)cc1 | inactive | < 36 | 0.14 | 107 | 0.14 | > 10000 | < 24 | 
15 | O=C(O)c1cc(N2CCN(C(=O)c3cn(-c4ccc5c(c4)OCCO5)c(-c4ccc(F)cc4)n3)CC2)cc2ccccc12 [listing 1 of 2 here] |  |  | 0.093 |  | 0.03 | > 10000 |  | 
16 | CCOc1cccc(-n2cc(C(=O)N3CCN(c4cc(C(=O)O)c5ccccc5c4)CC3)nc2-c2ccc(F)cc2)c1 [listing 1 of 2 here] |  |  | 0.048 |  | 0.08 | > 10000 |  | clearance [14]: 6.4 mL/min/kg; Vd [15]: 0.73 L/kg; half-life [16]: 2.7 h; Cmax [17]: 1100 nM; bioavailability [18]: 33%
17 | CCOc1cccc(-n2cc(C(=O)N3CCN(c4cc(C(=O)O)c5ccccc5c4)CC3)nc2-c2ccc(F)cc2F)c1 | inactive | < 36 | 0.053 | 76 | 0.07 | > 10000 | < 24 | 
18 | CCOc1cccc(-n2cc(C(=O)N3CCN(c4cc(C(=O)O)c5ccccc5c4)CC3)nc2-c2ccc(C)cc2)c1.O=C(O)C(F)(F)F |  |  |  |  |  |  |  | Activity (Mus musculus [10]): 72%; EC50 [11]: 1.3 nM; Activity (Mus musculus [12]): 18%; Activity (Mus musculus [13]): 82%
19 | CCOc1cccc(-n2cc(C(=O)N3CCN(c4cc(C(=O)O)c5ccccc5c4)CC3)nc2-c2ccc(F)cc2)c1 [listing 2 of 2 here] | inactive | < 36 |  | 95 |  |  | < 24 | 
20 | COc1cccc(-n2cc(C(=O)N3CCN(c4ccc5ccccc5c4)CC3)nc2-c2ccc(C)cc2)c1 | inactive | < 21 | 9.6 | 99 | 2.5 |  |  | 
21 | COc1cccc(-n2cc(C(=O)N3CCN(c4ccc5ncccc5c4)CC3)nc2-c2ccc(C)cc2)c1 | inactive | < 20 | 9.3 | 108 | 8.6 |  |  | 
22 | CCOc1cccc(-n2cc(C(=O)N3CCN(c4cc(C(=O)O)c5ccccc5c4)CC3)nc2-c2ccc(C)cc2F)c1.O=C(O)C(F)(F)F |  |  |  |  |  |  |  | Activity (Mus musculus [10]): 77%; EC50 [11]: 0.3 nM; Activity (Mus musculus [12]): 13%; Activity (Mus musculus [13]): 86%
23 | COc1cccc(-n2cc(C(=O)N3CCN(c4nc5ccccc5[nH]4)CC3)nc2-c2ccc(C)cc2)c1 | inactive | < 20 | 9.1 | 89 | 17 |  |  | 
24 | O=C(O)c1cc(N2CCN(C(=O)c3cn(-c4ccc5c(c4)OCCO5)c(-c4ccc(F)cc4)n3)CC2)cc2ccccc12 [listing 2 of 2 here] | inactive | < 36 |  | 97 |  |  | < 24 | 
